Results taken from patent publication US20260248881A1, “PHARMACEUTICAL COMPOSITION COMPRISING FOXM1 INHIBITOR AND IMMUNE CHECKPOINT INHIBITOR FOR PREVENTING OR TREATING CANCER” (National Cancer Center, priority 2022, published 2026).

Experiments:
[1] = tested on: Lewis lung carcinoma LLC-1; experiment: Syngeneic tumor model using murine lung cancer cells LLC-1
Method: Lewis lung carcinoma LLC-1, murine lung cancer cells (5×10^5), were implanted subcutaneously in 5-week-old C57BL/6N mice (n=6 per group) (OrientBio, Seoul, Korea) and left for 10 days to form tumors with a volume of approximately 150 mm^3. […] Tumor volumes and body weights of the mice were measured every other day. On day 9, all the mice were sacrificed, and tumor tissues were collected, fixed in formalin, embedded in paraffin, and sectioned for IHC.
CD3^+ T-cells were detected (ab16669, Cambridge, UK) by anti-CD3 antibody Abcam, according to manufacturer's manuals. The positive signal intensity of CD3^+ T-cells was analyzed by using computer image analysis with ImageJ software (LOCI, University of Wisconsin), and the intensity of CD3^+ signals was calculated as a relative ratio of total positive area/total surface area. Pathological images were obtained from an Aperio VERSA slide scanning system (Leica Biosystems Imaging, Vista, CA, USA). At 100× magnification, three independent and intact computerized microscopic fields of each tissue sample were captured by Aperio Imagescope software (Leica Biosystems Imaging, Vista, CA, USA) and were used for analysis of signal intensity of CD3^+ cells in while microscopic fields.
The in vivo synergy between TST and anti-4-1BB antibody-treated groups was determined by calculating a coefficient of drug interaction (CDI), with CDI values<1, <0.7, =1, and >1 indicating synergy, significant synergy, additivity, and antagonism, respectively.
Lewis lung carcinoma (LLC-1) mouse lung cancer cells (5×10^5) were injected subcutaneously into C57BL/6N mice (n=6 per group) and allowed to form tumors with a volume of 150 mm^3 for 10 days.

human H1299 or PC9 cells = experiment: Xenograft tumor model; format: in vivo, BALB/c nude mice
Method: Mice (n=6) were injected intraperitoneally with TST dissolved in DMSO at a dose of 17 mg/kg every 2 days before euthanasia and sacrifice. Tumor volume and body weight of the mice were measured every other day. […] Two days after the final TST injection, all mice were sacrificed, and tumor tissues were collected for immunohistochemical (IHC) staining of FOXM1 and PD-L1. The tissues were fixed in 10% neutralized formaldehyde and embedded in paraffin blocks. Tissue microarray (TMA) slides were made with a 4 mm diameter per sample and sectioned at 4 μm thickness to perform IHC with anti-FOXM1 (#20459S) or anti-PD-L1 (#13684S) (Cell Signaling Technology) antibodies. Autostainer Link48 (Dako, Agilent Technologies, Santa Clara, CA, USA) was used for analysis.
IHC staining was performed using anti-rabbit-HRP antibodies (K4003, EnVision+ HRP Labelled Polymer Anti-Rabbit, Dako, Agilent Technologies, Carpinteria, CA, USA) and 3,3′-diaminobenzidine (DAB) (K3468, DAB+ Chromogen, Dako, Agilent Technologies, Santa Clara, CA, USA) as substrates, and the sections were counterstained with hematoxylin (K8008, EnVision FLEX Hematoxylin, Dako, Agilent Technologies Singapore, Singapore). To analyze the in vivo toxicity of the tested drugs, four xenograft mice from each group were used for serum biochemical analysis (Table 2). On day 9, serum samples were collected from the mice in the control and TST-treated groups. In addition, the vital organs (liver, spleen, and kidney) were collected form mice, sectioned, and stained with H&E to monitor histopathological changes.
To investigate the effect of TST, which is a FOXM1 inhibitor, on tumor growth and PD-L1 expression in vivo, human H1299 or PC9 cells (5×10^6) were subcutaneously implanted into BALB/c nude mice (n=6 per group). When the average size of the xenografted tumor masses reached approximately 170 mm^3, TST was injected intraperitoneally into the mice at a dose of 17 mg/kg four times every 2 days (FIG. 7a). […] 2 days after the final TST treatment, the mice were sacrificed. […]

FOXM1 and PD-L1 = experiment: Immunoblotting of FOXM1 and PD-L1 in human colorectal cancer cell lines; format: cell-based; settings: 5 μM TST; HCT8, HCT116, and SW480
Method: Human colorectal cancer cell lines (HCT116, HCT8, and SW480) and human primary coronary artery smooth muscle cells (SMCs) were purchased from the American Type Culture Collection (Manassas, VA, USA), and a MC38 mouse colorectal adenocarcinoma cell line was provided by Dr. Beom-Kyu Choi (National Cancer Center, Goyang, Republic of Korea). MC38 cells were cultured in Dulbecco's modified Eagle's medium (DMEM) supplemented with 10% FBS and 1% penicillin/streptomycin. SW480 and HCT8 cells were cultured in Roswell Park Memorial Institute (RPMI) medium supplemented with 10% FBS and 1% penicillin/streptomycin. HCT116 cells were maintained in McCoy's 5A medium supplemented with 10% FBS and 1% penicillin/streptomycin. Cells were maintained at 37° C. in a humidified incubator with 5% CO2.
For immunoblotting analysis, protein concentrations were measured using a bicinchoninic acid kit (Cat. 23225; Thermo Fisher Scientific, Carlsbad, CA, USA). Proteins were separated by SDS-PAGE electrophoresis. […] The appropriate secondary antibodies conjugated to horseradish peroxidase were bound to the washed membrane, and protein bands were detected using a chemiluminescence kit (Thermo Fisher Scientific, Carlsbad, CA, USA).

[2] = tested on: c-MYC, cyclin B1, cyclin E1, and cyclin D1; experiment: Western blot of c-MYC and cyclins in H1299 and PC9 cells; format: cell-based, human; settings: both cell lines
Method: Cells were lysed in RIPA buffer supplemented with complete mini protease inhibitor cocktail (#04693124001; Roche, Basel, Switzerland) and kept on ice for 30 minutes. Equal amounts of protein were evenly loaded and analyzed by sodium dodecyl sulfate-polyacrylamide gel electrophoresis (SDS-PAGE), and transferred to polyvinylidene difluoride (PVDF) membranes (#IPVH 00010; Millipore, Billerica, MA, USA) at 100 V for 1 hour. Primary antibodies (Santa Cruz Biotechnology, Texas, USA) specific for FOXM1 (#sc-271746), cyclin E1 (#sc-481), α-tubulin (#sc-8035), and β-actin (#sc-47778); PD-L1 (#13684S), cyclin D1 (#2978S), cyclin B1 (#4138S), c-MYC (#5605S), and poly(ADP-ribose) polymerase (PARP, #9542S; Cell Signaling Technology, Beverly, MA, USA) were used to probe proteins of interest. A horseradish-peroxidase-conjugated secondary antibodies specific to the primary antibody was used to detect proteins using pico-enhanced chemiluminescence substrate (#34577; Thermo Fisher Scientific).

CD274 (PD-L1) = experiment: Semi-quantitative PCR of PD-L1 (CD274) transcript in H1299 and PC9 cells; format: cell-based, human; settings: TST in the presence of IFN-γ
Method: H1299 and PC9 cells purchased from ATCC (Manassas, VA, USA) were cultured in RPMI-1640 medium (#10-040-CV; Corning, New York, NY, USA) supplemented with 10% […] (#35-010-CV; Corning) and penicillin-streptomycin antibiotic cocktail (#15240062; Thermo Fisher Scientific, Waltham, MA, USA) at 37° C. and 5% CO2.
H1299 and PC9 LUAD cells were transfected with 5 nM negative control (NC) or FOXM1 siRNA (siFOXM1) (QIAGEN, Hilden, Germany) using Lipofectamine RNAiMAX (#13778150; Thermo Fisher Scientific). Human FOXM1 isoform b (pFLAG-FOXM1)-expressing plasmid or empty vector (pFLAG-CMV; mock) was transfected into H1299 and PC9 cells using Lipofectamine 2000 reagent (#11668019; Thermo Fisher Scientific) according to the manufacturer's instructions.
Total RNA was extracted and purified using the RNeasy kit (#74004; QIAGEN) according to the manufacturer's protocol. Reverse transcription of mRNA was performed using a PrimeScript 1st Strand CDNA Synthesis Kit (#6110A; TaKaRa Bio, Otsu, Japan). Quantitative PCR was performed using primers specific for the CD274 and FOXM1 genes designed using Primer 3 software. A β-actin gene was used as an internal control group to normalize target gene expression.

thiostrepton [TST]
number of apoptotic tumor cells (TUNEL), vs control group ([1]; day 9): 2.46 fold
increase in CD3+ T cells in tumors, vs control group ([1]; immunohistochemical staining): 1.32 fold
tumor growth inhibition ([1]; treatment initiated at smaller tumor size (~80 mm^3), antibodies 0.2 mg/mouse): 63.1%
inhibition of tumor growth ([1]; tumors 150 mm^3 at start, TST 17 mg/kg, anti-4-1BB 0.2 mg/mouse, day 1, 3, 5, 7, vs control group): 48%
FOXM1 and PD-L1 expression in tumors (immunohistochemical analysis) (human H1299 or PC9 cells; 2 days after final TST treatment, vs control mice): significantly downregulated
tumor volume (human H1299 or PC9 cells; TST 17 mg/kg intraperitoneally four times every 2 days, vs control group): significant decrease in tumor volume
body weight (human H1299 or PC9 cells; after 9 days, TST vs control): no difference in body weight
FOXM1 and PD-L1 levels (FOXM1 and PD-L1): significantly decreased both FOXM1 and PD-L1 levels
protein levels of c-MYC, cyclin B1, and cyclin D1 [2]: significantly decreased
PD-L1 mRNA expression (CD274 (PD-L1)): concentration-dependent decrease
